Experimental data as given in patent US10722501B2 (BAYER AKTIENGESELLSCHAFT, priority 2016, dated 2020).
pIC50: −log10 of the molar value.

Target: T1, recombinant full-length human prolyl endopeptidase (PREP) (Homo sapiens, UniProt P48147)
T1 construct: To recombinant full-length human prolyl endopeptidase (PREP, R&D-Systems, 4308-SE); purchased R&D-Systems 4308-SE
T1 sequence (P48147 1-710): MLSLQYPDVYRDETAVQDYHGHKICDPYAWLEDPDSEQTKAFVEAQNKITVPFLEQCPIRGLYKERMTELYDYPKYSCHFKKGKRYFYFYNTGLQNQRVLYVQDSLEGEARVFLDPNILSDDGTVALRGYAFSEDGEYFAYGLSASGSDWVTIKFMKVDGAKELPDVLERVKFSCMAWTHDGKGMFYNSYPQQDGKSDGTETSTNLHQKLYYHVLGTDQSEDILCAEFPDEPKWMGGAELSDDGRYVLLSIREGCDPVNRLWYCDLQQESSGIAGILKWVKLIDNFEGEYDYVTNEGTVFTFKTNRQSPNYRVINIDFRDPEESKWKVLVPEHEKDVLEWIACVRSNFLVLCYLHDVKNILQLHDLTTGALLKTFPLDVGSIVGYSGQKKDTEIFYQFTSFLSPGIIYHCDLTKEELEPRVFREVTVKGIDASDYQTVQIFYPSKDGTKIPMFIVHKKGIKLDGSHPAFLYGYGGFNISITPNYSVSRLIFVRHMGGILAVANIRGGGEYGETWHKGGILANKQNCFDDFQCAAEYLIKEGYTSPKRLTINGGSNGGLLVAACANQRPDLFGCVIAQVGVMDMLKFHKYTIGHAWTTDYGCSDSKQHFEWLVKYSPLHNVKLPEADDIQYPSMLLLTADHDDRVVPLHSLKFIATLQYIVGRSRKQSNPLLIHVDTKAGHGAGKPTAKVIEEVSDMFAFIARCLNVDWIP
Assay: Biochemical human prolyl endopeptidase (PREP) assay with fluorescently labelled substrate
Details: substrate Z-Gly-Pro-AMC 50 μM, 32° C., 60 min; some as mean values from multiple independent determinations
Outline: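 Initial rates of fluorescence increase from 50 μM Z-Gly-Pro-AMC cleavage (ex 360/em 465 nm, 60 min, 32° C) give percent PREP activity versus no-compound control, and IC50 is interpolated. Enzyme used at 0.4 nM (final, example) in Tris pH 7.5 with EDTA, GSH, BSA and Brij-35; compounds span 1 nM to 30 μM.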

Compound	pIC50
Cn1ccc(Cn2nc3n(c2=O)C(C(=O)N2CCC(F)(F)C2)CCC3)n1 (racemic) [Example 90, (5RS)-5-[(3,3-Difluoropyrrolidin-1-yl)carbonyl]-2-[(1-methyl-1H-pyrazol-3-yl)methyl]-5,6,7,8-tetrahydro[1,2,4]triazolo[4,3-a]pyridin-3(2H)-one]	8.01
O=C(C1CCCc2nn(Cc3cc(F)c(F)cc3F)c(=O)n21)N1CCC(F)(F)C1 (racemic) [Example 91, (5RS)-5-[(3,3-Difluoropyrrolidin-1-yl)carbonyl]-2-(2,4,5-trifluorobenzyl)-5,6,7,8-tetrahydro[1,2,4]triazolo[4,3-a]pyridin-3(2H)-one]	8.64
COc1ccc(Cn2nc3n(c2=O)C(C(=O)N2CCCC2)CCC3)cn1 (racemic) [Example 92, (5RS)-2-[(6-Methoxypyridin-3-yl)methyl]-5-(pyrrolidin-1-ylcarbonyl)-5,6,7,8-tetrahydro[1,2,4]triazolo[4,3-a]pyridin-3(2H)-one]	8.52
O=C(C1CCCc2nn(Cc3ccc(F)c(Cl)c3)c(=O)n21)N1CC(O)C1 (racemic) [Example 95, (5RS)-2-(3-Chloro-4-fluorobenzyl)-5-[(3-hydroxyazetidin-1-yl)carbonyl]-5,6,7,8-tetrahydro[1,2,4]triazolo[4,3-a]pyridin-3(2H)-one]	8.05
O=C(C1CCCc2nn(Cc3ccc(C(F)(F)F)nc3)c(=O)n21)N1CC(F)C1 (racemic) [Example 96, (5RS)-5-[(3-Fluoroazetidin-1-yl)carbonyl]-2-{[6-(trifluoromethyl)pyridin-3-yl]methyl}-5,6,7,8-tetrahydro[1,2,4]triazolo[4,3-a]pyridin-3(2H)-one]	8.13
Cc1ccc(Cn2nc3n(c2=O)C(C)(C(=O)N2CCCC2)CCC3)cc1 (racemic) [Example 105, 5(RS)-5-Methyl-2-(4-methylbenzyl)-5-(pyrrolidin-1-ylcarbonyl)-5,6,7,8-tetrahydro[1,2,4]triazolo[4,3-a]pyridin-3(2H)-one]	7.98
Cc1ccc(Cn2nc3n(c2=O)C(C(=O)N2C[C@@H]4[C@H](C2)C4(F)F)CCC3)cc1 (mixture of isomers) [Example 117, (5RS)-5-{[(cis)-6,6-Difluoro-3-azabicyclo[3.1.0]hex-3-yl]carbonyl}-2-(4-methylbenzyl)-5,6,7,8-tetrahydro[1,2,4]triazolo[4,3-a]pyridin-3(2H)-one]	8.50
Cc1ccc(Cn2nc3n(c2=O)C(C(=O)N2CCC(=O)C2)CCC3)cc1 (racemic) [Example 118, (5RS)-2-(4-Methylbenzyl)-5-[(3-oxopyrrolidin-1-yl)carbonyl]-5,6,7,8-tetrahydro[1,2,4]triazolo[4,3-a]pyridin-3(2H)-one]	8.25
Cc1ccc(Cn2nc3n(c2=O)C(C(=O)N2CC(O)C2)CCC3)cc1 (racemic) [Example 120, (5RS)-5-[(3-Hydroxyazetidin-1-yl)carbonyl]-2-(4-methylbenzyl)-5,6,7,8-tetrahydro[1,2,4]triazolo[4,3-a]pyridin-3(2H)-one]	8.02
Cc1ccc(Cn2nc3n(c2=O)C(C(=O)N2CC(OC(F)F)C2)CCC3)cc1 (racemic) [Example 123, (5RS)-5-{[3-(Difluoromethoxy)azetidin-1-yl]carbonyl}-2-(4-methylbenzyl)-5,6,7,8-tetrahydro[1,2,4]triazolo[4,3-a]pyridin-3(2H)-one]	7.92
Cc1ccc(Cn2nc3n(c2=O)C(C(=O)N2CC(C(F)(F)F)C2)CCC3)cc1 (racemic) [Example 124, (5RS)-2-(4-Methylbenzyl)-5-{[3-(trifluoromethyl)azetidin-1-yl]carbonyl}-5,6,7,8-tetrahydro[1,2,4]triazolo[4,3-a]pyridin-3(2H)-one]	7.85
COC1CN(C(=O)C2CCCc3nn(Cc4ccc(C)cc4)c(=O)n32)C1 (racemic) [Example 125, (5RS)-5-[(3-Methoxyazetidin-1-yl)carbonyl]-2-(4-methylbenzyl)-5,6,7,8-tetrahydro[1,2,4]triazolo[4,3-a]pyridin-3(2H)-one]	7.60
Cc1ccc(Cn2nc3n(c2=O)C(C(=O)N2C[C@H]4C[C@H]4C2)CCC3)cc1 (mixture of isomers) [Example 126, (5RS)-5-[(cis)-3-Azabicyclo[3.1.0]hex-3-ylcarbonyl]-2-(4-methylbenzyl)-5,6,7,8-tetrahydro[1,2,4]triazolo[4,3-a]pyridin-3(2H)-one]	7.55
Cc1ccc(Cn2nc3n(c2=O)C(C(=O)N2CC(O)(C(F)(F)F)C2)CCC3)cc1 (racemic) [Example 131, (5RS)-{[3-Hydroxy-3-(trifluoromethyl)azetidin-1-yl]carbonyl}-2-(4-methylbenzyl)-5,6,7,8-tetrahydro[1,2,4]triazolo[4,3-a]pyridin-3(2H)-one]	6.97
Cc1ccc(Cn2nc3n(c2=O)C(C(=O)N2CC(=O)C2)CCC3)cc1 (racemic) [Example 133, (5RS)-2-(4-Methylbenzyl)-5-[(3-oxoazetidin-1-yl)carbonyl]-5,6,7,8-tetrahydro[1,2,4]triazolo[4,3-a]pyridin-3(2H)-one]	6.84
CC1Cc2nn(Cc3ccc(C(F)(F)F)nc3)c(=O)n2C(C(=O)N2CC(O)C2)C1 (racemic) [Example 134, (5RS,7RS)-5-[(3-Hydroxyazetidin-1-yl)carbonyl]-7-methyl-2-{[6-(trifluoromethyl)pyridin-3-yl]methyl}-5,6,7,8-tetrahydro[1,2,4]triazolo[4,3-a]pyridin-3(2H)-one]	7.10

Stronger by pIC50, values ahead:

pIC50	Compound
8.71	Cc1ccc(Cn2nc3n(c2=O)C(C(=O)N2CC(F)(F)C2)CCC3)cc1 (racemic) [Example 114, (5RS)-5-[(3,3-Difluoroazetidin-1-yl)carbonyl]-2-(4-methylbenzyl)-5,6,7,8-tetrahydro[1,2,4]triazolo[4,3-a]pyridin-3(2H)-one]
8.77	Cc1ccc(Cn2nc3n(c2=O)C(C(=O)N2CCC4CC42)CCC3)cc1 (racemic) [Example 144, (5S)-5-[(cis)-2-Azabicyclo[3.1.0]hex-2-ylcarbonyl]-2-(4-methylbenzyl)-5,6,7,8-tetrahydro[1,2,4]triazolo[4,3-a]pyridin-3(2H)-one]
8.80	Cc1ccc(Cn2nc3n(c2=O)C(C(=O)N2CC(F)C2)CCC3)cc1 (racemic) [Example 112, (5RS)-5-[(3-Fluoroazetidin-1-yl)carbonyl]-2-(4-methylbenzyl)-5,6,7,8-tetrahydro[1,2,4]triazolo[4,3-a]pyridin-3(2H)-one]
8.89	O=C(C1CCCc2nn(Cc3cc(F)c(F)cc3F)c(=O)n21)N1CCCC1 (racemic) [Example 89, (5RS)-5-(Pyrrolidin-1-ylcarbonyl)-2-(2,4,5-trifluorobenzyl)-5,6,7,8-tetrahydro[1,2,4]triazolo[4,3-a]pyridin-3(2H)-one]
8.93	O=C(C1CCCc2nn(Cc3ccc4c(c3)CCCC4)c(=O)n21)N1CCC(F)(F)C1 (racemic) [Example 87, (5RS)-5-[(3,3-Difluoropyrrolidin-1-yl)carbonyl]-2-(5,6,7,8-tetrahydronaphthalen-2-ylmethyl)-5,6,7,8-tetrahydro[1,2,4]triazolo[4,3-a]pyridin-3(2H)-one]
8.93	CC1Cc2nn(Cc3ccc(C(F)(F)F)nc3)c(=O)n2C(C(=O)N2CC[C@H](F)C2)C1 (mixture of isomers) [Example 136, (5RS,7RS)-5-{[(3S)-3-Fluoropyrrolidin-1-yl]carbonyl}-7-methyl-2-{[6-(trifluoromethyl)pyridin-3-yl]methyl}-5,6,7,8-tetrahydro[1,2,4]triazolo[4,3-a]pyridin-3(2H)-one]
9.00	O=C(C1CCCc2nn(Cc3ccc(F)c(Cl)c3)c(=O)n21)N1CCC(F)(F)C1 (racemic) [Example 86, (5RS)-2-(3-Chloro-4-fluorobenzyl)-5-[(3,3-difluoropyrrolidin-1-yl)carbonyl]-5,6,7,8-tetrahydro[1,2,4]triazolo[4,3-a]pyridin-3(2H)-one]
9.08	Cc1ccc(Cn2nc3n(c2=O)[C@H](C(=O)N2CC[S+]([O-])C2)CCC3)cc1 (mixture of isomers) [Example 141, (5S)-2-(4-Methylbenzyl)-5-{[(1 RS)-1-oxido-1,3-thiazolidin-3-yl]carbonyl}-5,6,7,8-tetrahydro[1,2,4]triazolo[4,3-a]pyridin-3(2H)-one]
9.57	O=C(C1CCCc2nn(Cc3ccc4c(c3)CCCC4)c(=O)n21)N1CCCC1 (racemic) [Example 88, (5RS)-5-(Pyrrolidin-1-ylcarbonyl)-2-(5,6,7,8-tetrahydronaphthalen-2-ylmethyl)-5,6,7,8-tetrahydro[1,2,4]triazolo[4,3-a]pyridin-3(2H)-one]
9.80	Cc1nc(C)c(Cn2nc3n(c2=O)C(C(=O)N2CCCC2)CCC3)nc1C (racemic) [Example 103, (5RS)-5-(Pyrrolidin-1-ylcarbonyl)-2-[(3,5,6-trimethylpyrazin-2-yl)methyl]-5,6,7,8-tetrahydro[1,2,4]triazolo[4,3-a]pyridin-3(2H)-one]
